Here are results for one compound from the NIST ThermoML archive (doi:10.1021/je900852t).

Numbers after ± are expanded uncertainties.

For this data set the following is noted: Crystal; visual observation.

Take `c1ccc2cc3ccccc3cc2c1` [anthracene]: the Normal melting temperature stood at 215 ± 1 °C.
